According to patent publication US5712265A (The General Hospital Corporation, priority 1995, dated 1998):
Structures can show the parent of a compound that is named as a salt. Where two headings read alike, the source gives them in different places.

Experiments:
[1] = 3.0 and 6.0 μg/kg intramuscularly at 11:00 pm; cited from earlier work
[2] = cited from earlier work
[3] = in vivo; cited from earlier work
[4] = tested on: 3-hydroxy-3-methylglutaryl coenzyme A (HMG-CoA) reductase; conditions: cited from earlier work
[5] = 2.5 mg once, cited from earlier work
[6] = 7.5 to 20 mg daily by mouth; cited from earlier work
[7] = tested on: adipose tissue cyclic AMP phosphodiesterase; conditions: cited from earlier work
[8] = tested on: isolated fat cells; conditions: in vitro; cited from earlier work
[9] = in vivo; cited from earlier work; remark: listed apart in the source
[10] = for Cholesterol / HDL-Chol / Plasma Glucose / Plasma Insulin / Reproperitoneal Fat / Triglyceride: 18 days after last treatment; for Food Consumption: P 4 mg/kg or M 500 μg/kg oral, two weeks
Protocol: Forty male older Sprague-Dawley rats (6 months of age) were separated into 5 groups of 8 rats each. […] A control group (C) received peanut butter only daily at 0800 and 1800. Rat chow (Purina) was made available ad libitum. Treatment lasted two weeks. Blood samples were taken and retroperitoneal fat was dissected and weighed 18 days after the last day of treatment. This made it possible to assess long term effects of the treatment. […] All animals were fasted 6 hours prior to blood sampling and sacrifice.

[11] = cited from earlier work; remark: listed apart in the source
[12] = 0.5 or 0.75 mg s.c., cited from earlier work
[13] = 0.5 mg intramuscularly, cited from earlier work
[14] = in vivo; cited from earlier work; remark: listed apart in the source
[15] = 5 mg at 2230 h; cited from earlier work
[16] = in vivo; cited from earlier work; remark: listed apart in the source
[17] = Timed administration of methyl scopolamine, long-term effects (Example 7); format: in vivo, Sprague-Dawley rat; conditions: for Retroperitoneal Fat: 0.5 mg/kg BW two weeks
Protocol: Methylscopolamine (MSC) (0.5 mg/kgBW) in 1 mL peanut butter was fed at light onset (AM) or at light offset (PM) to 9 Sprague-Dawley rats (30 weeks old) in each group daily for two weeks. Nine-other rats were fed only peanut butter. 18 days after the last treatment, the rats were sacrificed and the indices in Table 6 were measured.

[18] = dosed at 0800, 18 days post-treatment
[19] = AM, 18 days after last treatment
[20] = PM, 18 days after last treatment
[21] = light-offset vs light-onset administration

CN1[C@@H]2C[C@@H](OC(=O)[C@H](CO)c3ccccc3)C[C@H]1[C@@H]1O[C@@H]12 [scopolamine]
rapid eye movement latency [1]: significant dose-related delay | susceptibility to motion sickness ([2]; 0.01 mg/kg orally 2 h before rotation): significantly decreased | hormone concentrations (ACTH, cortisol, STH, prolactin) vs placebo ([2]; 0.01 mg/kg orally): identical

CC[C@H](C)C(=O)O[C@H]1C[C@@H](C)C=C2C=C[C@H](C)[C@H](CC[C@@H]3C[C@@H](O)CC(=O)O3)[C@H]21 [lovastatin]
increase in HDL concentrations [3]: 5-10% | total cholesterol [3]: specifically reduces total cholesterol | HMG-CoA reductase inhibition [4]: selectively inhibits

CC(C)C[C@H]1C(=O)N2CCC[C@H]2[C@]2(O)O[C@](NC(=O)[C@@H]3C=C4c5cccc6[nH]c(Br)c(c56)C[C@H]4N(C)C3)(C(C)C)C(=O)N12 [bromocriptine]
plasma glucose concentration ([5]; 2 h prior to glucose challenge): decrease | Plasma Insulin [5]: decrease with drug administration was significant | plasma prolactin levels [5]: decreased markedly | patients having aggravation [6]: 4 | patients having improvement in glucose regulation [6]: six | patients showing no significant change [6]: 14

CN1[C@@H]2C[C@@H](OC(=O)[C@H](CO)c3ccccc3)C[C@H]1[C@@H]1O[C@@H]12 [scopolamine hydrobromide]
adipose tissue cyclic AMP phosphodiesterase activity [7]: nor inhibited | glycerol release from isolated fat cells [8]: did not significantly affect

CCOC(=O)C(C)(C)Oc1ccc(Cl)cc1 [clofibrate]
effectiveness [9]: varies from subject to subject | side effects [9]: nephrotic syndromes, myalgia, nausea and abdominal pain

C[N+]1(C)[C@@H]2C[C@@H](OC(=O)[C@H](CO)c3ccccc3)C[C@H]1[C@@H]1O[C@@H]12 [methyl scopolamine]
food consumption, change in words ([10]; dosed at 0800): significant increase | insulin resistance (plasma insulin and glucose), in words [10, 18]: improved insulin resistance | plasma lipid indices, change in words [10, 18]: significantly reduced retroperitoneal body fat, plasma lipid indices | retroperitoneal body fat, change in words [10, 18]: significantly reduced retroperitoneal body fat | Cholesterol ([10]; dosed at 0800): 96.8 ± 1.8 mg/dL | HDL-Chol ([10]; dosed at 0800): 43.9 ± 2.7 mg/dL | Plasma Glucose ([10]; dosed at 0800): 158 ± 4 | Plasma Insulin ([10]; dosed at 0800): 118 ± 7 | Reproperitoneal Fat ([10]; dosed at 0800): 2.18 ± 0.31 g | Triglyceride ([10]; dosed at 0800): 90.0 ± 3.1 mg/dL | Food Consumption ([10]; dosed at 0800): 17.5 ± 1.3 g/day | Cholesterol ([10]; dosed at 1800): 133.6 ± 1.9 mg/dL | HDL-Chol ([10]; dosed at 1800): 61.0 ± 1.9 mg/dL | Plasma Glucose ([10]; dosed at 1800): 148 ± 7 | Plasma Insulin ([10]; dosed at 1800): 171 ± 14 | Reproperitoneal Fat ([10]; dosed at 1800): 2.61 ± 0.19 g | Triglyceride ([10]; dosed at 1800): 188.0 ± 5.7 mg/dL | Food Consumption ([10]; dosed at 1800): 14.9 ± 1.0 g/day | HDL-cholesterol, change in words ([10]; only with administration at 1800): increase | tolerability ([11]; chronic use of 5 mg): not particularly well tolerated by most patients | dawn phenomenon ([11]; given at bedtime): attenuated | sleep induced growth hormone secretion ([11]; given at bedtime): suppressed | elevated AVP levels ([12]; after physostigmine): decreased | elevated cortisol levels ([12]; after physostigmine): decreased | elevated prolactin levels ([12]; after physostigmine): decreased | growth hormone secretion [12]: inhibited | overall and mean peak growth hormone levels during the night ([13]; 1/2 h before bedtime): dramatically reduced | insulin-induced hypoglycemia [13]: did not affect sleep patterns or insulin-induced hypoglycemia | prolactin levels during sleep [13]: did not affect prolactin levels during sleep | sleep patterns [13]: did not affect sleep patterns | half-life [14]: 4 to 6 h | dawn effect [15]: decrease | peak growth hormone concentrations after sleep [15]: marked inhibition | effect of physostigmine on plasma pituitary hormones (cortisol, prolactin, ACTH) [16]: inhibited | Retroperitoneal Fat ([17]; AM (light onset), 18 days after last treatment): 2.78 ± 0.08 g | Cholesterol [17, 19]: 94.7 ± 4.9 mg/dL | Glucose [17, 19]: 151.8 ± 19.6 mg/dL | HDL Cholesterol [17, 19]: 32.5 ± 4.1 mg/dL | Insulin [17, 19]: 144.1 ± 5.9 μU/mL | Triglycerides [17, 19]: 197 ± 18 mg/dL | Retroperitoneal Fat ([17]; PM (light offset), 18 days after last treatment): 2.45 ± 0.07 g | Cholesterol [17, 20]: 94.1 ± 5.7 mg/dL | HDL Cholesterol [17, 20]: 45.2 ± 4.2 mg/dL | Insulin [17, 20]: 163.8 ± 2.7 μU/mL | Triglycerides [17, 20]: 106 ± 21 mg/dL | persistence after cessation of treatment ([17]; Table 6): long-term effect that persists after cessation of the treatment | glucose, change in words ([17]; light onset or offset): significantly reduced | insulin, change in words ([17]; light onset or offset): significantly reduced | retroperitoneal fat, change in words ([17]; light onset or offset): significantly reduced | cholesterol, change in words [17, 21]: significantly increased cholesterol | insulin, change in words [17, 21]: significantly reduced triglycerides and insulin | triglycerides, change in words [17, 21]: significantly reduced triglycerides | HDL, change in words ([17]; only at light offset): increased HDL | triglycerides, change in words ([17]; only at light offset): significantly reduced

CN1CCN(CC(=O)N2c3ccccc3C(=O)Nc3cccnc32)CC1 [pirenzepine]
half-life [14]: about 11 hours
